In patent publication US9926281B2 (priority 2014, dated 2018) one finds IC50 data, which are given here for 29 compounds.

The structures appear in SMILES notation. Read-outs that look alike come from different tables or passages of the source.

One assay has as its target human TACE (Homo sapiens (Human), UniProt P78536). The settings on record: read-out: TACE potency IC50.
Assay [1] concerns the target T1, human ADAMTS-5 (Homo sapiens (Human), UniProt Q9UNA0). To be noted: read-out: hADAMTS-5 potency IC50.
Assay [2] has as its target T1, human ADAMTS-5. The settings on record: read-out: hADAMTS-5 potency IC50. The source holds these as a separate data set.
Protocol: Finally, the fluorescence is read on the Envision (Perkin Elmer) after an incubation of 90 min at 37° C.
For the next assay, the target named is human MMP13 (Homo sapiens (Human), UniProt P45452). To be noted: read-out: hMMP-13 potency IC50.
Another assay has as its target rnADAMTS-5 (1-564-6H) (Rattus norvegicus, UniProt Q6TY19). The settings on record: read-out: Rat ADAMTS-5 potency IC50.

Sequence of human TACE (P78536 whole entry, looked up, change not shown): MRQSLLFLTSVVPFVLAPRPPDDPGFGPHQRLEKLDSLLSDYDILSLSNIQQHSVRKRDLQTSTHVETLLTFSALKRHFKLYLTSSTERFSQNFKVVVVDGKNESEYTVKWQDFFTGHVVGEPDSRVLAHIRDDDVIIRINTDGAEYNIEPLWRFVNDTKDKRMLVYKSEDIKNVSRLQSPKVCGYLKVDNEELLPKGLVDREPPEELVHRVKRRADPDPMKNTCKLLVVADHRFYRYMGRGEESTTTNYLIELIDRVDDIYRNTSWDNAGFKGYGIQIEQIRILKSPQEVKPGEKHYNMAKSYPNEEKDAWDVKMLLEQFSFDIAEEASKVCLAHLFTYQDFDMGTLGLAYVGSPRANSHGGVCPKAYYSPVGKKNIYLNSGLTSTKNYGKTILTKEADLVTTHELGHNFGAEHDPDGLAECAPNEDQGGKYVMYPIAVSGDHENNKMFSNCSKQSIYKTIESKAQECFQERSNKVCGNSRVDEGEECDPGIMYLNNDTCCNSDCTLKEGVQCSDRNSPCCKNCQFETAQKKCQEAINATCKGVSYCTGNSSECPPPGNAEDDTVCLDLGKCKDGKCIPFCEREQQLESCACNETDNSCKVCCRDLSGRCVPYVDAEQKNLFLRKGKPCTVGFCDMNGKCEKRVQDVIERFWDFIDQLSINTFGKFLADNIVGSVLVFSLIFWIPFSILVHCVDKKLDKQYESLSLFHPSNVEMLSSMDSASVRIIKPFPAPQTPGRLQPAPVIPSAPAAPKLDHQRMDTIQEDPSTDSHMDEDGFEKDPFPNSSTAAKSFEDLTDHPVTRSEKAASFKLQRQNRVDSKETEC
T1 sequence (Q9UNA0 262-930): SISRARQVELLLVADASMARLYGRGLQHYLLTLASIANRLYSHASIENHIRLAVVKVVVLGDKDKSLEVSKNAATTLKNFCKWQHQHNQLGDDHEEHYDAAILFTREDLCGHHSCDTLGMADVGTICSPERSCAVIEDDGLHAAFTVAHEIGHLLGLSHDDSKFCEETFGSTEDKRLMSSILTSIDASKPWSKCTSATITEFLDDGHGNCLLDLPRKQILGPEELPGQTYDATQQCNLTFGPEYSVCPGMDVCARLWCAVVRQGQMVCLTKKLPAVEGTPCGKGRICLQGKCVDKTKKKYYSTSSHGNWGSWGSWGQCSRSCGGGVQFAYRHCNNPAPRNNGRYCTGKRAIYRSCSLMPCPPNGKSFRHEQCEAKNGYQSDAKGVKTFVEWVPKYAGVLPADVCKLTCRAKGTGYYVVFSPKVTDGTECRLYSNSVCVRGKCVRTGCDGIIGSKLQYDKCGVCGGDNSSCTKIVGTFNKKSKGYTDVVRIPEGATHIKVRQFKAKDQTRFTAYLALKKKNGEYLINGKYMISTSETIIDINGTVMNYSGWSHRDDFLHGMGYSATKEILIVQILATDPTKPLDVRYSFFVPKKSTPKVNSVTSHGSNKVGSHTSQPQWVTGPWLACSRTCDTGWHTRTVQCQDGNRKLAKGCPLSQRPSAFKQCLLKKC
Protocol for human MMP13: Human MMP13 is preactivated by incubated the enzyme in the same buffer complemented with 1 mM freshly prepared p-Aminophenylmercuric acetate (AMPA) for 1 hour at 37° C.

Consider `O=C1NC(=O)C(CCC(=O)N2CCN(c3ccc4occc4c3)CC2)(c2ccccc2)N1` (stereo not shown) [compound 25, 5-[3-[4-(benzofuran-5-yl)piperazin-1-yl]-3-oxo-propyl]-5-phenyl-imidazolidine-2,4-dione], for which the IC50 was greater than 2000 nM at human TACE and 138 nM at human ADAMTS-5 [1].

With `O=C1NC(=O)C(CCC(=O)N2CCN(c3ccc4scnc4c3)CC2)(c2ccccc2)N1` (stereo not shown) [compound 26, 5-[3-[4-(1,3-benzothiazol-5-yl)piperazin-1-yl]-3-oxo-propyl]-5-phenyl-imidazolidine-2,4-dione], the IC50 on human TACE is greater than 10000 nM; on human ADAMTS-5 [1], 706 nM.

Take `Cc1ccc(N2CCN(C(=O)CCC3(c4ccccc4)NC(=O)NC3=O)CC2)c(C)c1` (stereo not shown) [compound 31, 5-[3-[4-(2,4-dimethylphenyl)piperazin-1-yl]-3-oxo-propyl]-5-phenyl-imidazolidine-2,4-dione]: at human ADAMTS-5 [1], the IC50 was 1060 nM.

In the case of `Cc1ccccc1N1CCN(C(=O)CCC2(C(C)C)NC(=O)NC2=O)CC1` (stereo not shown) [compound 32, 5-isopropyl-5-[3-[4-(o-tolyl)piperazin-1-yl]-3-oxo-propyl]imidazolidine-2,4-dione], the IC50 was greater than 4000 nM on human TACE and 385 nM on human ADAMTS-5 [1].

Regarding `CC1(CCC(=O)N2CCN(c3ccc(F)c(F)c3)CC2)NC(=O)NC1=O` (stereo not shown) [compound 37, 5-[3-[4-(3,4-difluorophenyl)piperazin-1-yl]-3-oxo-propyl]-5-methyl-imidazolidine-2,4-dione], the IC50 at human TACE was greater than 20000 nM; at human ADAMTS-5 [1] it was 229 nM.

On to `Cc1ccc(N2CCN(C(=O)CCC3(C)NC(=O)NC3=O)CC2)c(C)c1` (stereo not shown) [compound 38, 5-[3-[4-(2,4-dimethylphenyl)piperazin-1-yl]-3-oxo-propyl]-5-methyl-imidazolidine-2,4-dione], for which the IC50 on human ADAMTS-5 [1] was greater than 4000 nM.

As to `Cc1ccc(C)c(N2CCN(C(=O)CCC3(C)NC(=O)NC3=O)CC2)c1` (stereo not shown) [compound 39, 5-[3-[4-(2,5-dimethylphenyl)piperazin-1-yl]-3-oxo-propyl]-5-methyl-imidazolidine-2,4-dione], the half-inhibitory concentration (IC50) at human TACE was found to be 588 nM; at human ADAMTS-5 [1], 570 nM.

Take `CC1(CCC(=O)N2CCN(c3cccc(Cl)c3Cl)CC2)NC(=O)NC1=O` (stereo not shown) [compound 41, 5-[3-[4-(2,3-dichlorophenyl)piperazin-1-yl]-3-oxo-propyl]-5-methyl-imidazolidine-2,4-dione]: on human ADAMTS-5 [1], the IC50 was determined as 2660 nM.

In the case of `CC1(CCC(=O)N2CCN(c3ccccn3)CC2)NC(=O)NC1=O` (stereo not shown) [compound 42, 5-methyl-5-[3-oxo-3-[4-(2-pyridyl)piperazin-1-yl]propyl]imidazolidine-2,4-dione], on human ADAMTS-5 [1], the IC50 is greater than 3980 nM.

Take `CC1(CCC(=O)N2CCN(c3cccc(Br)c3)CC2)NC(=O)NC1=O` (stereo not shown) [compound 48, 5-[3-[4-(3-bromophenyl)piperazin-1-yl]-3-oxo-propyl]-5-methyl-imidazolidine-2,4-dione]: at human ADAMTS-5 [1], the IC50 stood at 391 nM.

`CN(C)CCC1(CCC(=O)N2CCN(c3cc(Cl)cc(Cl)c3)CC2)NC(=O)NC1=O` (stereo not shown) [compound 58, 5-[3-[4-(3,5-dichlorophenyl)piperazin-1-yl]-3-oxo-propyl]-5-(2-dimethylaminoethyl)imidazolidine-2,4-dione]: the IC50 at human ADAMTS-5 [1] is greater than 20000 nM.

As for `CC1(CCC(=O)N2CCN(c3nccs3)CC2)NC(=O)NC1=O` (stereo not shown) [compound 59, 5-methyl-5-[3-oxo-3-(4-thiazol-2-ylpiperazin-1-yl)propyl]imidazolidine-2,4-dione], the IC50 on human ADAMTS-5 [1] was greater than 20000 nM.

Turning to `Cc1cc(F)ccc1N1CCN(C(=O)CCC2(C)NC(=O)NC2=O)CC1` (stereo not shown) [compound 61, 5-[3-[4-(4-fluoro-2-methyl-phenyl)piperazin-1-yl]-3-oxo-propyl]-5-methyl-imidazolidine-2,4-dione], the IC50 at human ADAMTS-5 [1] came to 2940 nM.

In the case of `Cc1ccccc1N1CCN(C(=O)CCC2(CN(C)C)NC(=O)NC2=O)CC1` (stereo not shown) [compound 119, 5-(dimethylaminomethyl)-5-[3-[4-(o-tolyl)piperazin-1-yl]-3-oxo-propyl]imidazolidine-2,4-dione], the IC50 at human ADAMTS-5 [1] turned out to be 1740 nM.

In the case of `C[C@@H]1CN(C(=O)CCC2(c3ccccc3)NC(=O)NC2=O)CCN1c1ccccc1` (stereo partly drawn) [compound 131, 5-[3-[(3R)-3-methyl-4-phenyl-piperazin-1-yl]-3-oxo-propyl]-5-phenyl-imidazolidine-2,4-dione], at human ADAMTS-5 [1], the IC50 was determined as 1260 nM.

Consider `Cc1cccc(C2(CCC(=O)N3CCN(c4cccc(Cl)c4)CC3)NC(=O)NC2=O)c1` (stereo not shown) [compound 141, 5-[3-[4-(3-chlorophenyl)piperazin-1-yl]-3-oxo-propyl]-5-(m-tolyl)imidazolidine-2,4-dione], for which, on human ADAMTS-5 [1], the IC50 was determined as 119 nM.

On to `CC1CN(C(=O)CCC2(C3CC3)NC(=O)NC2=O)CCN1c1cccc(F)c1` (stereo not shown) [compound 149, 5-cyclopropyl-5-[3-[4-(3-fluorophenyl)-3-methyl-piperazin-1-yl]-3-oxo-propyl]imidazolidine-2,4-dione], for which the IC50 at human ADAMTS-5 [1] amounted to 79 nM.

Consider `CC1CN(C(=O)CCC2(C3CC3)NC(=O)NC2=O)CCN1c1cccc(Cl)c1` (stereo not shown) [compound 150, 5-[3-[4-(3-chlorophenyl)-3-methyl-piperazin-1-yl]-3-oxo-propyl]-5-cyclopropyl-imidazolidine-2,4-dione], for which, on human ADAMTS-5 [1], the IC50 came out at 95 nM.

For `CC(CC1(C2CNC2)NC(=O)NC1=O)C(=O)N1CCN(c2cc(Cl)cc(Cl)c2)CC1` (stereo not shown) [compound 196], the IC50 on human ADAMTS-5 [2] was 102 nM; on human MMP13, greater than 20000 nM; on human TACE, greater than 3930 nM; at rnADAMTS-5 (1-564-6H), 104 nM.

For the compound `CSCCC1(CC(C)C(=O)N2CCN(c3cc(Cl)cc(Cl)c3)CC2)NC(=O)NC1=O` (stereo not shown) [compound 197, 5-[3-[4-(3,5-dichlorophenyl)piperazin-1-yl]-2-methyl-3-oxo-propyl]-5-(2-methylsulfanylethyl)imidazolidine-2,4-dione], the IC50 is 26 nM on human ADAMTS-5 [2], greater than 4000 nM on human MMP13, 134 nM at human TACE and 21 nM on rnADAMTS-5 (1-564-6H).

Regarding `CC(CC1(CC2CCN(C(=O)OC(C)(C)C)CC2)NC(=O)NC1=O)C(=O)N1CCN(c2cc(Cl)cc(Cl)c2)CC1` (stereo not shown) [compound 198, tert-butyl 4-[[4-[3-[4-(3,5-dichlorophenyl)piperazin-1-yl]-2-methyl-3-oxo-propyl]-2,5-dioxo-imidazolidin-4-yl]methyl]piperidine-1-carboxylate], the IC50 at human ADAMTS-5 [2] is 52 nM; at human MMP13 it was 1940 nM; on human TACE it was 817 nM; on rnADAMTS-5 (1-564-6H), 38 nM.

For the compound `CC(CC1(C2CCOCC2)NC(=O)NC1=O)C(=O)N1CCN(c2cc(Cl)cc(Cl)c2)CC1` (stereo not shown) [compound 199, 5-[3-[4-(3,5-dichlorophenyl)piperazin-1-yl]-2-methyl-3-oxo-propyl]-5-tetrahydropyran-4-yl-imidazolidine-2,4-dione], the IC50 was 62 nM on human ADAMTS-5 [2], greater than 20000 nM on human MMP13, 1050 nM on human TACE and 48 nM on rnADAMTS-5 (1-564-6H).

Turning to `COC(CC1(C2CC2)NC(=O)NC1=O)C(=O)N1CCN(c2cc(Cl)cc(Cl)c2)CC1` (stereo not shown) [compound 206, 5-cyclopropyl-5-[3-[4-(3,5-dichlorophenyl)piperazin-1-yl]-2-methoxy-3-oxo-propyl]imidazolidine-2,4-dione], the IC50 on human ADAMTS-5 [2] was 60 nM; on human MMP13 it was greater than 4000 nM; at human TACE it was greater than 4000 nM; on rnADAMTS-5 (1-564-6H) it was 40 nM.

Regarding `C[C@H]1CN(C(=O)CC[C@@]2(C3CC3)NC(=O)NC2=O)CCN1c1ccc(Cl)c(Cl)c1` [compound 207, (5S)-5-cyclopropyl-5-[3-[(3S)-4-(3,4-dichlorophenyl)-3-methyl-piperazin-1-yl]-3-oxo-propyl]imidazolidine-2,4-dione], the IC50 at human ADAMTS-5 [2] is 12 nM; on human MMP13, 2880 nM; on human TACE, greater than 4000 nM; at rnADAMTS-5 (1-564-6H), 6 nM.

On to `CN(C)c1cccc(N2CCN(C(=O)CCC3(C4CC4)NC(=O)NC3=O)CC2)c1` (stereo not shown) [compound 209, 5-cyclopropyl-5-[3-[4-[3-(dimethylamino)phenyl]piperazin-1-yl]-3-oxo-propyl]imidazolidine-2,4-dione], for which the IC50 was 836 nM on human ADAMTS-5 [2], greater than 20000 nM on human MMP13, greater than 4000 nM on human TACE and 565 nM on rnADAMTS-5 (1-564-6H).

`CC(CC1(C)NC(=O)NC1=O)C(=O)N1CCN(c2ccc(F)c(F)c2)CC1` (stereo not shown) [compound 211, 5-[3-[4-(3,4-difluorophenyl)piperazin-1-yl]-2-methyl-3-oxo-propyl]-5-methyl-imidazolidine-2,4-dione]: the IC50 at human ADAMTS-5 [2] was found to be 48 nM; at human MMP13 it was 377 nM; on human TACE, 3740 nM; at rnADAMTS-5 (1-564-6H) it was 23 nM.

Turning to `CC(CC1(C)NC(=O)NC1=O)C(=O)N1CCN(c2cc(F)cc(F)c2)[C@@H](C)C1` (stereo partly drawn) [compound 213, 5-[3-[(3S)-4-(3,5-difluorophenyl)-3-methyl-piperazin-1-yl]-2-methyl-3-oxo-propyl]-5-methyl-imidazolidine-2,4-dione], the IC50 at human ADAMTS-5 [2] was 30 nM; at human MMP13, greater than 4000 nM; at human TACE, greater than 20000 nM; at rnADAMTS-5 (1-564-6H), 21 nM.

In the case of `Cc1ccc(F)cc1N1CCN(C(=O)C(C)CC2(C)NC(=O)NC2=O)C[C@@H]1C` (stereo partly drawn) [compound 216, 5-[3-[(3S)-4-(5-fluoro-2-methyl-phenyl)-3-methyl-piperazin-1-yl]-2-methyl-3-oxo-propyl]-5-methyl-imidazolidine-2,4-dione], the IC50 at human ADAMTS-5 [2] was 305 nM; at human MMP13, greater than 20000 nM; on human TACE, greater than 4000 nM; at rnADAMTS-5 (1-564-6H), 250 nM.

Regarding `CC(CC1(C)NC(=O)NC1=O)C(=O)N1CCN(c2ccc(F)c(Cl)c2)[C@@H](C)C1` (stereo partly drawn) [compound 405, 5-{3-[(S)-4-(3-Chloro-4-fluoro-phenyl)-3-methyl-piperazin-1-yl]-2-methyl-3-oxo-propyl}-5-methyl-imidazolidine-2,4-dione], the IC50 on human ADAMTS-5 [2] is 22 nM; on human MMP13, 2330 nM; at human TACE, greater than 4000 nM; on rnADAMTS-5 (1-564-6H), 18 nM.
